Assay results: PMC12549899 (Nature Communications, 2025)
Where “and” joins values, the source holds several entries; their conditions need not be identical. Identical values can stand only once.

Biological target: T1, DrOTOP1 G130W/A274W (Danio rerio, UniProt Q7ZWK8, A274W/G130W)
T1 construct: A previously generated codon-optimized full-length DrOTOP1[8]; (UniProt: Q7ZWK8) construct; expressed in transfected cells; host or cells: HEK-293 (CRL-1573, ATCC)
T1 sequence (Q7ZWK8 1-586 G130W/A274W): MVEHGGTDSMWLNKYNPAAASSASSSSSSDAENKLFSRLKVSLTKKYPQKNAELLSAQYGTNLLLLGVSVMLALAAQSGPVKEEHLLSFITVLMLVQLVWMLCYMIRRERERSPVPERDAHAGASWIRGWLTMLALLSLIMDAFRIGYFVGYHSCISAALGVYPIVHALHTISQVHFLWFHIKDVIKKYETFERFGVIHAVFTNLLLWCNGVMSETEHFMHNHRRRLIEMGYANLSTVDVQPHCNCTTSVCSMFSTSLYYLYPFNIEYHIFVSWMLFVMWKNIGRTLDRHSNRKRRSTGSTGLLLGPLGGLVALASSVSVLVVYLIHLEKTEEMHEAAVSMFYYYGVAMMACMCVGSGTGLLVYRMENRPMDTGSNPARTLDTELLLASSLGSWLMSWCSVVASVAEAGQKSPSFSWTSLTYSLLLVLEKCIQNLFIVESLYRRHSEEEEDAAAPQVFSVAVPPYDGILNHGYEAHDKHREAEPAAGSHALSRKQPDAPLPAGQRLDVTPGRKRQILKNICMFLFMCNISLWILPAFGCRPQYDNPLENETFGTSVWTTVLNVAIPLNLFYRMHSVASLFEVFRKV
Assay: Whole-cell patch-clamp, inhibition of acid-evoked currents, DrOTOP1 G130W/A274W
Format: cell-based, zebrafish (Danio rerio)
Method: Given our limited success in identifying mutations of the central site that disrupt antagonism by C2.2, we tested whether mutations of the central site in a background of G130W (the most impactful outer site mutation) might unmask contributions of this site. Thus, we generated and tested double mutants of G130W with E384A, A274W, and A388W. […] We also measured the dose-dependence of inhibition by C2.2 for both G130W/A388W and G130W/E384A (Fig. 5I, J). […] G130W was tested in parallel to confirm that 100 and 300 μM C2.2 produced dose-dependent inhibition.
HEK-293 cells (CRL-1573, ATCC) were cultured in DMEM (Thermofisher 11995073) containing 10% fetal bovine serum (Life Technology 16000044) and Penicillin-Streptomycin (100 I.U./mL) and (100 µg/mL), respectively. Cells were transfected with WT DrOTOP1 or mutant DrOTOP1 channels in 35 mm petri dishes, with ~ 500 ng DNA and 2 μL TransIT-LT1 transfection reagent (Mirus Bio Corporation, Cat # MIR2300) following the manufacturer’s protocol. […]
Whole-cell patch-clamp recording was performed as previously described[6],[22],[25]. Recordings were made with an Axopatch 200B amplifier, digitized with a Digidata 1322a 16-bit data acquisition system, acquired with pClamp 8.2 and analyzed with Clampfit 10 (Molecular Devices). […]
All data are presented as mean ± SEM unless otherwise noted, and each data point represents an independent replicant. Inhibition of compounds was quantified as ((I2peak-I1)/(I2peak))*100, where I1 is the current immediately before wash-off and I2peak is the maximum recovered current (Supplementary Fig. 2). Hill coefficients were determined by the following equation: Y = Bmax*X^h/(Kd^h + X^h). Absolute IC50 was determined by the following equation: Fifty = (Top + Baseline)/2 Y = Bottom + (Top-Bottom)/(1 + ((Top-Bottom)/(Fifty-Bottom) − 1)*(AbsoluteIC50/X)^HillSlope). pH50 curves (Fig. 6G inset) were determined using the following equation: Y = Bottom + (Top-Bottom)/(1 + (EC/X)^HillSlope) where EC = EC50 control. […]

Row | SMILES | inhibition at 10 µM (10 µM, single cells or mean) [%] | Inhibition of currents (100 µM, single cells) | inhibition at 100 µM (100 µM, single cells) [%]
1 | C=C(C)COc1ccccc1NC(=O)c1nc[nH]c1C [C2.2] | 8.49 |  | 
2 | O=C(/C(=N\O)c1ccccc1)c1ccccc1 [C11, benzil monoxime] |  | 67.5079% and 70.0684% and 78.866% and 74.4022% | 67.5
